The test system of the experiment is CEM cells HIV-1 protection, formazan growth assay. Kind of experiment: NCI AIDS Antiviral Assay. The conditions noted are these: for IC50: measured here: growth of uninfected CEM cells. The method, boiled down:
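Screen of anti-HIV-1 activity in human CEM cells using a formazan-based growth measurement at five drug concentrations. Hits with 50% or greater protection were repeated, and confirmation required reproducible complete protection.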

Values joined by “and” are separate entries in the source; they are usually repeats but may differ in a detail not shown here. Equal entries are not always repeated. Active and inactive are the calls of the source.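 Rule for the calls: active = compounds giving half or more protection of infected cells from virus-caused growth loss, again on retest; inactive = the rest.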 Where a SMILES comes first, the peptide text is derived from it.

Data on 55 compounds can be found in PubChem BioAssay AID179 (DTP/NCI, 2004).

In general, EC50 refers to the concentration at which the effect is half-maximal. What is called IC50 is the point on the concentration scale where inhibition reaches its midpoint. Turning to `S=C1SC2(CCCC2)NC2=C1CCC2`, the EC50 is > 126 µM and the IC50 was > 126 µM.

For `CN1CCC2(CC1)C(=NC1CCCCC1)NC(=O)N2c1ccccc1`, the EC50 was > 200 µM and the IC50 is > 200 µM.

Consider `CCOC(=O)C(C)(C)Oc1ccc2c(-c3ccc(Cl)cc3)c(-c3ccc(Cl)cc3)c(=O)oc2c1`, for which the EC50 is > 7.59 µM and the IC50 was > 7.59 µM.

For `COC1CC(OC)C(O)C(CO)O1` (stereo not drawn), the result was inactive.

In the case of `COc1ccc2c(c1)c1c(n2CCN2CCOCC2)-c2ccccc2CC1`, the result was inactive.

As to `NC1(C(=O)O)C2CC3CC(C2)CC1C3` (stereo not drawn), the outcome was inactive.

Take `COc1c(C2(c3ccc(F)cc3)SCCCS2)c(=O)c1=O`: the EC50 was > 200 µM and the IC50 is > 200 µM.

For the compound `Nc1ccc(-c2cc(C(=O)Nc3nccs3)[nH]c(=S)n2)cc1`, the EC50 is > 759 µM and the IC50 was determined as 407 µM.

Regarding `COc1ccc(OC2OC(CO)C(OCc3ccccc3)C(OCc3ccccc3)C2OCc2ccccc2)cc1` (stereo not drawn), the EC50 was > 200 µM and the IC50 stood at 12 µM.

With `NC(CSCCCO)C(=O)O` (stereo not drawn), the outcome was inactive.

For the compound `C=C[C@@H]1OC(=O)O[C@H]1CO`, the EC50 is > 200 µM and the 50% inhibitory concentration (IC50) is > 200 µM.

In the case of `Cc1ccc(S(=O)(=O)N2CCn3ncc(C#N)c32)cc1`, the EC50 was > 186 µM and the IC50 was > 186 µM.

As for `COc1cc2c(cc1OC)-c1cc3cc(OC)c(OC)cc3n1CC2`, the EC50 was > 4.27 µM and the IC50 came out at 2.4 µM.

For `CC1=CCP(C(F)(F)F)P(C(F)(F)F)C1` (stereo not drawn), the EC50 was > 251 µM and the IC50 is > 251 µM.

On to `O=C1c2ccccc2C(=O)N1n1c(Cc2ccc([N+](=O)[O-])cc2)n[nH]c1=O`, for which the EC50 was > 200 µM and the IC50 was > 200 µM.

Consider `O=C(/C=C/c1ccc(Cl)c(Cl)c1)C1CCC(Cl)CC1` (stereo not drawn), for which the EC50 was > 6.31 µM and the IC50 is > 6.31 µM.

`CCCCNC(=O)OCCN=c1c2ccccc2ccc2ccccc12`: the EC50 was > 200 µM and the IC50 was > 200 µM.

On to `O=C1CCC2COc3ccc(O)c1c32` (stereo not drawn), for which the outcome was inactive.

Turning to `O=C(O)c1csc(C(=O)O)c1`, the EC50 was 162 µM and the IC50 was determined as 759 µM.

Consider `Cc1cc(=O)c2c(o1)-c1ccccc1C(c1ccccc1)c1ccccc1-2` (stereo not drawn), for which the EC50 was 1.51 µM and the IC50 was 25.1 µM.

For `Cc1cc(NS(=O)(=O)c2ccc(N=c3c4ccccc4n(Cc4ccccc4)c4ccccc34)cc2)no1`, the result was inactive.

With `COC(=O)c1ccccc1C1CN=NC12Cc1cc(C)cc(C)c1C2=O` (stereo not drawn), the result was inactive.

On to `CC1(O)CC(=O)c2c(cc3ccc(-c4c5c(c(O)c6c(O)cccc46)C(=O)CC(C)(O)C5)c(O)c3c2O)C1` (stereo not drawn), for which the EC50 was > 200 µM and the IC50 was 0.389 µM.

On to `CCOC(=O)NC(=O)c1cn(CCCOC(=O)NCCCCCCNC(=O)OCCCn2c(=O)c(C(=O)NC(=O)OCC)cn(C)c2=O)c(=O)n(C)c1=O`, for which the EC50 is > 33.9 µM and the IC50 was > 33.9 µM.

On to `CCOC(=O)C1C(c2ccc3c(c2)OCO3)c2c([nH][nH]c2=O)CC1(C)O` (stereo not drawn), for which the EC50 was > 200 µM and the IC50 was > 200 µM.

Turning to `COC(CC[P+](c1ccccc1)(c1ccccc1)c1ccccc1)(C(=O)c1ccccc1)c1ccccc1` (stereo not drawn), the EC50 is > 20 µM and the IC50 amounted to 0.447 µM.

Consider `CCOc1ccncc1[N+](=O)[O-]`, for which the EC50 is > 200 µM and the half-maximal inhibitory concentration (IC50) is > 200 µM.

Regarding `O=C(NC1C=Nc2ccccc2NC1=O)c1ccccc1Cl` (stereo not drawn), the EC50 was > 115 µM and the IC50 came out at 97.7 µM.

As to `CNC(=O)c1ccc(C(=O)NCCCCCN(O)C(=O)CCC(=O)NCCCCCN(O)C(=O)CCC(=O)NCCCCCN(O)C(C)=O)c(O)c1O`, the EC50 is > 100 µM and the IC50 came to 69.2 µM.

Regarding `COc1ccc(Oc2c(OC)cc(NCc3ccc(CN)cc3)c3ncccc23)cc1`, the EC50 was > 200 µM and the IC50 was determined as 27.5 µM.

On to `Cc1ccc(C2CC3(c4ccccc4)ON=C(c4ccccc4)N3c3ccccc3S2)cc1` (stereo not drawn), for which the EC50 was > 200 µM and the IC50 was determined as 41.7 µM.

Take `CCOC(=O)CCC[P+](c1ccccc1)(c1ccccc1)c1ccccc1`: the EC50 is > 200 µM; the half-inhibitory concentration (IC50) was 22.4 µM and 7.76 µM.

For the compound `CN(C)C(=N)c1ccccc1`, the result was inactive.

In the case of `N#C/C=C(/NC(=O)Nc1ccccc1)N1CCCC1`, the EC50 was > 200 µM and the IC50 was > 200 µM.

On to `CC(=C(C(=O)O)C(=O)O)c1cc(-c2cccs2)cc(-c2ccc(Cl)cc2)c1O`, for which the EC50 was > 200 µM and the IC50 was 12.3 µM.

For the compound `COc1ccc(/C(C#N)=C/c2cc(OC)c(OC)c(OC)c2)cc1`, the EC50 is > 200 µM and the IC50 was determined as 5.75 µM.

With `O=c1[nH]c2cc(Cl)ccc2c(O)c1Cc1c(O)c2ccc(Cl)cc2[nH]c1=O`, the EC50 is > 100 µM and the IC50 turned out to be 5.37 µM.

For `CN1C(=O)C(=O)n2c(cc3ccccc32)C1=O`, the EC50 was > 6.31 µM and the IC50 was > 6.31 µM.

For the compound `O=C1NC(=S)S/C1=C\c1ccc(Cl)cc1`, the EC50 was > 74.1 µM and the IC50 was found to be 66.1 µM.

Regarding `COc1ccc(Br)c(CN2CCc3ccccc32)c1OS(=O)(=O)c1ccc(C)cc1`, the outcome was inactive.

As for `O=C(O)c1[nH]c(C(=O)O)c(CC(F)(F)C(F)(F)C(F)(F)F)c1CC(F)(F)C(F)(F)C(F)(F)F`, the outcome was inactive.

On to `CCCCCn1c(=O)c2c(=O)[nH][nH]c2c2ccccc21`, for which the EC50 was > 200 µM and the IC50 is > 200 µM.

Take `CC1NC(=O)C2=C1C(N)=NC(=O)C2` (stereo not drawn): the EC50 is > 1000 µM and the IC50 is > 1000 µM.

For `CC(=O)CCn1c(=S)sc2ccccc21`, the EC50 was > 200 µM and the IC50 is 93.3 µM.

Turning to `COC(=O)C1C=CCC2CCCCC21N1CCCC1` (stereo not drawn), the result was inactive.

On to `FC(F)(F)c1ccc2nc(NCc3ccccc3)c(-c3ccccc3)nc2c1`, for which the EC50 is > 19.1 µM and the IC50 is > 19.1 µM.

Consider `C[N+]1(C)C/C(=C\c2ccc(O)cc2)C(=O)/C(=C/c2ccc(O)cc2)C1`, for which the EC50 is > 77.6 µM and the IC50 was determined as 56.2 µM.

For the compound `CC(=O)Nc1ccc(/C=C/C(=O)c2sc(-c3cccnc3)nc2C)cc1`, the EC50 is > 51.3 µM and the IC50 is > 51.3 µM.

Turning to `C=CCCCC1CCCNC1=S` (stereo not drawn), the EC50 is > 275 µM and the half-inhibitory concentration (IC50) is > 275 µM.

Consider `O=C1CC[C@@H](S(=O)(=O)c2ccccc2)[C@H](/C=C/c2ccccc2)O1`, for which the result was inactive.

With `CC(C)(C)c1ccc2c(c1)OCc1n[nH]c(n1)COc1cc(C(C)(C)C)ccc1OCCOCCO2`, the EC50 is > 200 µM and the IC50 came to 7.24 µM.

Turning to `O=C1/C(=C\c2ccccc2Cl)CCCC/C1=C\c1ccccc1Cl`, the EC50 is > 200 µM and the concentration for half-maximal inhibition (IC50) is 166 µM.

On to `O=C(/C=N/O)Nc1cccc(Cl)c1I`, for which the EC50 is > 110 µM and the IC50 came out at 93.3 µM.

On to `O=C1NN2CCN=C2c2cccnc21`, for which the EC50 was > 1320 µM and the concentration for half-maximal inhibition (IC50) is > 1320 µM.

For `CC(=O)NC(C(=O)N1CCCC1C(=O)O)C(C)C` (stereo not drawn) (Ac-Val-Pro-OH; configuration not given here), the EC50 was > 200 µM and the IC50 is > 200 µM.
